This is an account of results in US20240051976A1, “A Tracer Compound and a Preparation Method Thereof” (Turun Yliopisto, priority 2020, published 2024).

For one data set, the system named is B16/F10 melanoma cells. The data set is described as follows: Nonspecific B16/F10 melanoma cell-uptake (free, membrane-bound, internalized fractions). The settings on record: for radioactivity in the free fraction outside the cells: n=3. It counts as cell-based, mouse. How it is done:
Rat pancreatic tumor cell line AR42J that expresses SSTR was obtained from American Type Culture Collection (Manassas, VA). C4-2 cells (ATCC® CRL-3314™) were cultured in DMEM medium (Gibco) supplemented with 18% F12 medium (Sigma), 10% FBS (Gibco) and 1% T-medium. Both cell lines were grown in at 37° C. in a humidified incubator containing 5% C02. Cells grown to 80%-90% confluence were used for either in vitro or in vivo experiments. Mouse skin melanoma B16/F10 cells were cultured in CO2 Independent Medium (Life Technologies Gibco, cat. #18045054) supplemented with GlutaMax (1× final concentration, 10% FBS and Pen-Strep at 37° C. in a humidified incubator. The B16/F10 cell viability was 97%. The C4-2 cells (ATCC® CRL-3314™) were cultured in DMEM medium (Gibco) supplemented with 18% F12 medium (Sigma), 10% FBS (Gibco) and 1% T-medium. Both cell lines were grown in at 37° C. in a humidified incubator containing 5% C02. Cells grown to 80%-90% confluence were used for either in vitro or in vivo experiments.
500 000 cells/well were seeded overnight on 6-well plates. The growth media was removed and the reaction media containing the radiotracer [^18F]4 was added. […] The membrane-bound fraction was collected by adding cold glycine buffer (1 mL) on the cells, incubating for 5 minutes on an ice bath, removing the supernatant, repeating the procedure, and washing the cells with cold 1×PBS, and collecting all the supernatants to the same microtube. For determining the internalized fraction, 1 M NaOH was added on the cells and left to incubate in ambient temperature for 10 minutes. The supernatant was removed and the cells were washed twice with cold 1×PBS, and the supernatants were collected into the same microtube. The supernatants collected separately in each phase, were measure with a gamma counter for determining the radioactivity-ratio (%) of each fraction. […] The radioactivity distribution between the aforementioned fractions is depicted in FIG. 9.

A short description of data set [1]: PET/CT, biodistribution and elimination in control SCID mice. Format: in vivo, mouse. The conditions noted are these: intravenous. How it is done:
[^18F]AmBF3-Tz ([^18F]4) was formulated in 10% ethanol in 0.01 M PBS and administered intravenously to SCID mice. The PET/CT image was acquired with Inveon PET/CT and Molecubes PET and CT.
[^18F]AmBF3-Tz ([^18F]4) was formulated in 10% ethanol in 0.01 M PBS and administered intravenously to SCID mice. The standardized uptake values (SUVs) presenting the elimination profile (FIGS. 13a and 13b) were determined from the PET image by drawing regions-of-interest (ROI) around selected organs (heart, liver, kidney, lung, muscle, urinary bladder) and by measuring the ratio of radioactivity per unit volume of that ROI and normalized to the injected dose.

As for `C[N+](C)(CCNC(=O)Cc1ccc(-c2nncnn2)cc1)C[B-](F)(F)F` [[^18F]4, {[(2-{2-[4-(1,2,4,5-tetrazin-3-yl)phenyl]acetamido}ethyl)dimethylammonio]methyl}trifluoroborate], the “radioactivity in the free fraction outside the cells” value is given as 99.3±0.09% in the data set on B16/F10 melanoma cells (B16/F10 cells, 15 min) and 99.3±0.08% in the data set on B16/F10 melanoma cells (B16/F10 cells, 240 min). Moreover, the “% of total radioactivity in the free fraction” value with B16/F10 melanoma cells (B16/F10 cells, at each time point (FIG. 9)) is reported as “Over 99%”. Besides, the “nonspecific uptake in B16/F10 cells” value with B16/F10 melanoma cells (throughout the study) is listed as “did not demonstrate nonspecific uptake”. Also, in data set [1], the main elimination route entry was “through kidneys”. Further, the “in vivo stability (bone uptake)” value in data set [1] (PET/CT and biodistribution) is “excellent stability”.
